The source of these data is ChEMBL document CHEMBL1124423, “Synthesis of highly mu and delta opioid receptor selective peptides containing a photoaffinity group” (J Med Chem, 1989).

The species entered for experiment [1] is Mus musculus. As to the kind of experiment: Concentration that reduced the response by 50% by delta selective analogue was assessed in mouse vas deferens assay; NA is no activity at 10e-5 M. The format is functional.
Experiment [2] deals with Mu-type opioid receptor (Rattus norvegicus, UniProt P33535). In words: Binding potency of compound in competition with [3H]CTOP for Opioid receptor mu 1 tested in rat brain membrane. The format is cell membranes.
Experiment [3] addresses Delta-type opioid receptor (Rattus norvegicus, UniProt P33533). In words: Binding potency of compound in competition with [3H]DPDPE for Opioid receptor delta 1 tested in rat brain membrane. The format is cell membranes.
Experiment [4] deals with Opioid receptors; mu & delta (Homo sapiens) (UniProt P41143+P35372). In words: Selectivity ratio for binding to mu vs delta opioid receptor. The format is protein assay.
Experiment [5] is filed under the species Cavia porcellus. In words: Inhibition of response by delta receptor selective analogue at 10000 nM was assessed in Guinea pig ileum assay. The format is functional.
The species named for experiment [6] is Mus musculus. In words: Concentration that reduced the response by 50% by delta selective analogue was assessed in mouse vas deferens assay. The format is functional.
The species named for experiment [7] is Cavia porcellus. In words: Concentration that reduced the response by 50% by delta receptor selective analogue was assessed in Guinea pig ileum assay. The format is functional.
For experiment [8], the species on record is Cavia porcellus. In words: Inhibition of response by delta receptor selective analogue at 300 nM was assessed in Guinea pig ileum assay. The format is functional.
Experiment [9] is filed under the species Cavia porcellus. As to the kind of experiment: Inhibition of response by delta receptor selective analogue at 3000 nM was assessed in Guinea pig ileum assay. The format is functional.
For experiment [10], the species on record is Mus musculus. As to the kind of experiment: Concentration that reduced the response by 50% by delta receptor selective analogue was assessed in mouse vas deferens assay; NA is no activity at 10e-5 M. Format: functional.
The species named for experiment [11] is Cavia porcellus. As to the kind of experiment: Affinity of mu receptor selective analogue in Guinea pig ileum assay expressed as pA2. Format: functional. The conditions noted are these: read-out: pA2 (converted).

Sequence of Delta-type opioid receptor (P33533 whole entry): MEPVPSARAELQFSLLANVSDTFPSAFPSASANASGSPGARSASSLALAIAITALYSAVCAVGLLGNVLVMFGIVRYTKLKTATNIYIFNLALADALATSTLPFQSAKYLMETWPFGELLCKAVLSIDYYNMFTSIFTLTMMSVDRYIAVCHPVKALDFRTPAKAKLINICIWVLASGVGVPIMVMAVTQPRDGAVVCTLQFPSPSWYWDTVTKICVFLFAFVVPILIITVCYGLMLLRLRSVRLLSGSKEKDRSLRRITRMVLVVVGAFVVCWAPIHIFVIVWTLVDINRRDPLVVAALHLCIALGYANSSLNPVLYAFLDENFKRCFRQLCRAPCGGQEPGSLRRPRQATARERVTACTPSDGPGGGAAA
Sequence of Opioid receptors; mu & delta (Homo sapiens) (P35372 whole entry, looked up): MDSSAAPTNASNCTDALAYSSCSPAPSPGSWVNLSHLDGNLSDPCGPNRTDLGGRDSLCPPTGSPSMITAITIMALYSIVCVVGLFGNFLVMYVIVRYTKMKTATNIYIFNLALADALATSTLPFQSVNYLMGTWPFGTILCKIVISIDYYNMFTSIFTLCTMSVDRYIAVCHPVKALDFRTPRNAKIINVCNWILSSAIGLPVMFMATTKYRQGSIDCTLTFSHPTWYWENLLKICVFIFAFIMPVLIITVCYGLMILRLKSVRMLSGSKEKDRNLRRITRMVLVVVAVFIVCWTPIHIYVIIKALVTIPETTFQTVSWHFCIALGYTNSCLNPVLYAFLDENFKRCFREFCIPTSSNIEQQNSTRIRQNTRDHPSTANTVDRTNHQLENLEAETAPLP
Sequence of Opioid receptors; mu & delta (Homo sapiens) (P41143 whole entry, looked up): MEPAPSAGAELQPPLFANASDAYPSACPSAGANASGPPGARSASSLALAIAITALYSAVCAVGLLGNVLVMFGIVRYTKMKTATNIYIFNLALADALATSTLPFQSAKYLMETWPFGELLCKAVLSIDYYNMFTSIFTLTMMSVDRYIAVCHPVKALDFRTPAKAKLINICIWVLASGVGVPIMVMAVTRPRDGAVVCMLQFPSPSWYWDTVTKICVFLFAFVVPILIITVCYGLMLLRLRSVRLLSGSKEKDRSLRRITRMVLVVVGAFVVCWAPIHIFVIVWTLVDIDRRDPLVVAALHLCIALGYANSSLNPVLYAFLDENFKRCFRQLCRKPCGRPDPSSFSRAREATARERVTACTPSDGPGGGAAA
Sequence of Mu-type opioid receptor (P33535 whole entry): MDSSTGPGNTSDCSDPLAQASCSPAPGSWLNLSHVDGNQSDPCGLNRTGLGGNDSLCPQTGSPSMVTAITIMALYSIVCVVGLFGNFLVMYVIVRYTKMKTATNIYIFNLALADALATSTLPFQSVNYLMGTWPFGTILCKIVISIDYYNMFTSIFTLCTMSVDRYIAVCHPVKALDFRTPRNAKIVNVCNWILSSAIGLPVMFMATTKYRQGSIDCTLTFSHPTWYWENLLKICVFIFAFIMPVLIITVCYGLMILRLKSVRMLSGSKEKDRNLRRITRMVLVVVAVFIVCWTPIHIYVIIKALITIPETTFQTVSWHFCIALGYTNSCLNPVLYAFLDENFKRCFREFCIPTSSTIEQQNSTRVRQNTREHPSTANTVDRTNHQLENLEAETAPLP

Turning to `C[C@@H](O)[C@H](NC(=O)[C@H]1NC(=O)[C@H]([C@@H](C)O)NC(=O)[C@H](CCCCN)NC(=O)[C@@H](Cc2c[nH]c3ccccc23)NC(=O)[C@H](Cc2ccc(N)cc2)NC(=O)[C@@H](NC(=O)[C@H](N)Cc2ccccc2)CSSC1(C)C)C(N)=O` [listing 1 of 2 here], the IC50 entry in [1] was “Not Active”; in [2] it was 500 nM; in experiment [3], over 10000 nM.

As for `C[C@@H](O)[C@H](NC(=O)[C@H]1NC(=O)[C@H]([C@@H](C)O)NC(=O)[C@H](CCCCN)NC(=O)[C@@H](Cc2c[nH]c3ccccc23)NC(=O)[C@H](Cc2ccc(N=[N+]=[N-])cc2)NC(=O)[C@@H](NC(=O)[C@H](N)Cc2ccccc2)CSSC1(C)C)C(N)=O` [listing 1 of 2 here], the IC50 result in [1] was “Not Active”; in [2] it was 49 nM; in experiment [3], 20000 nM.

As for `C[C@@H](O)[C@H](NC(=O)[C@@H]1NC(=O)[C@H]([C@@H](C)O)NC(=O)[C@@H](CCCCN)NC(=O)[C@@H](Cc2c[nH]c3ccccc23)NC(=O)[C@@H](Cc2ccc(N)cc2)NC(=O)[C@H](NC(=O)[C@@H](N)Cc2ccccc2)CSSC1(C)C)C(N)=O`, the Ratio in experiment [4] was over 20.

In the case of `CC1(C)SSC(C)(C)[C@@H](NC(=O)[C@@H](N)Cc2ccc(O)cc2)C(=O)NCC(=O)N[C@@H](Cc2ccc(N=[N+]=[N-])cc2)C(=O)N[C@H]1C(=O)O` [listing 1 of 2 here], 10 µM produced 6% inhibition in [5].

On to `CC1(C)SSC(C)(C)[C@@H](NC(=O)[C@@H](N)Cc2ccc(O)cc2)C(=O)NCC(=O)N[C@@H](Cc2ccc(N=[N+]=[N-])cc2)C(=O)N[C@H]1C(=O)O` [listing 2 of 2 here], for which the IC50 in experiment [6] amounted to 9.5 nM.

For `CC1(C)SSC(C)(C)[C@@H](NC(=O)[C@@H](N)Cc2ccc(O)cc2)C(=O)NCC(=O)N[C@@H](Cc2ccccc2)C(=O)N[C@H]1C(=O)O`, the half-inhibitory concentration (IC50) in experiment [6] was 4.3 nM.

`CC1(C)SSC(C)(C)[C@@H](NC(=O)[C@@H](N)Cc2ccc(O)cc2)C(=O)NCC(=O)N[C@@H](Cc2ccc(N)cc2)C(=O)N[C@H]1C(=O)O`: the results for the IC50 in experiment [7] and in experiment [6] were over 10000 nM and 138 nM, respectively.

In experiment [8], `C[C@@H](O)[C@H](NC(=O)[C@H]1NC(=O)[C@H]([C@@H](C)O)NC(=O)[C@H](CCCCN)NC(=O)[C@@H](Cc2c[nH]c3ccccc23)NC(=O)[C@H](Cc2ccc(N=[N+]=[N-])cc2)NC(=O)[C@@H](NC(=O)[C@H](N)Cc2ccccc2)CSSC1(C)C)C(N)=O` [listing 2 of 2 here] showed an inhibition at 0.3 µM of 8%.

For `C[C@@H](O)[C@H](NC(=O)[C@H]1NC(=O)[C@H]([C@@H](C)O)NC(=O)[C@H](CCCCN)NC(=O)[C@@H](Cc2c[nH]c3ccccc23)NC(=O)[C@H](Cc2ccc(N)cc2)NC(=O)[C@@H](NC(=O)[C@H](N)Cc2ccccc2)CSSC1(C)C)C(N)=O` [listing 2 of 2 here], the inhibition at 3 µM in experiment [9] is 5%.

Regarding `C[C@@H](O)[C@H](NC(=O)[C@@H]1NC(=O)[C@H]([C@@H](C)O)NC(=O)[C@@H](CCCCN)NC(=O)[C@@H](Cc2c[nH]c3ccccc23)NC(=O)[C@@H](Cc2ccc(O)cc2)NC(=O)[C@H](NC(=O)[C@@H](N)Cc2ccccc2)CSSC1(C)C)C(=O)O`, the Ratio in [4] stood at 3230.

Take `C[C@@H](O)[C@H](NC(=O)[C@H]1NC(=O)[C@H]([C@@H](C)O)NC(=O)[C@H](CCCCN)NC(=O)[C@@H](Cc2c[nH]c3ccccc23)NC(=O)[C@H](Cc2ccc(O)cc2)NC(=O)[C@@H](NC(=O)[C@H](N)Cc2ccccc2)CSSC1(C)C)C(=O)O`: the IC50 entry in experiment [10] is “Not Active”; in experiment [2], 3 nM; in experiment [3], 8400 nM. Besides, the Kb in [11] is 79.4 nM.

On to `C[C@@H](O)[C@H](NC(=O)[C@@H]1NC(=O)[C@H]([C@@H](C)O)NC(=O)[C@@H](CCCCN)NC(=O)[C@@H](Cc2c[nH]c3ccccc23)NC(=O)[C@@H](Cc2ccc(N=[N+]=[N-])cc2)NC(=O)[C@H](NC(=O)[C@@H](N)Cc2ccccc2)CSSC1(C)C)C(N)=O`, for which the Ratio in [4] was determined as 412.

A word on the IC50: it is the concentration that inhibits the measured activity by half. One may read the inhibition as the relative decrease from the control value, in per cent. Lower therefore signals a response near the control.
